Results: patent publication US20210038559A1, “CANNABINOIDS AND DERIVATIVES FOR PROMOTING IMMUNOGENICITY OF TUMOR AND INFECTED CELLS” (priority 2018, published 2021)
pEC50: −log10 of the molar value. Read-outs that look alike come from different tables or passages of the source.

Experiments:
[1] = system: MHC class I expression on COLO 205 cells; test: MHC class I expression on COLO 205 cells, 24 hours, flow cytometry (W6/32); conditions: for fold induction at 10 µM / fold induction at 20 µM / fold induction at 30 µM / fold induction at 40 µM: Homo sapiens, COLO 205
Protocol: FIG. 2A-2F. […] Cells were treated for 24 hours and cell surface MHC class I expression was measured by flow cytometry.
Cannabigerol was also tested for its capacity to induce MHC class I expression in a human colorectal carcinoma cell line, COLO 205. The cells were treated with either 25 μM or 50 μM cannabigerol for 24 hours. Fluorophor (Alexa Fluor 488)-conjugated W6/32 antibody (Thermo Fisher) was used in a flow cytometry assay to quantitate MHC class I expression. […] Cannabigerol is only one of many cannabinoid-like molecules with potential biopharmaceutical activity. […] COLO 205 cells were treated with up to 40 μM of the cannabinoids 1-5 presented in Tables 1 and 2 and evaluated for cell surface MHC class I expression as described above for cannabigerol.

[2] = system: MHC-I expression, COLO 205 cells; test: Time course of MHC-I expression in CBD-treated COLO 205 cells; assay type: cell-based, human; conditions: COLO 205, 15 μM
Protocol: FIG. 5. MHC-I expression (MFI) is induced over time in CBD-treated COLO 205 cells.
To determine whether changes in gene expression play a role in cannabinoid-induced MHC-I expression, COLO 205 cells were incubated with 15 μM CBD and cells were harvested at 6, 12, 24, and 48 hours for determination of MHC-I expression by flow cytometry.

[3] = system: MHC-I expression on COLO 205 cells; test: Phytocannabinoid MHC-I induction on COLO 205 cells, 0-100 μM, 48 hours; conditions: for Fold Induction: MHC-I expression on COLO 205 cells, 0-100 μM, 48 hours, relative to control cells treated only with buffer
Protocol: FIG. 4. Cell surface MHC class I expression was measured by flow cytometry (MFI).
Phytocannabinoids were tested for MHC-I-inducing activity on COLO 205 cells. Each cannabinoid was tested at a concentration range of 0-100 μM. […] “ND” indicates not determined.

[4] = system: MHC class I expression, mouse Lewis lung carcinoma cell line A9; test: MHC class I expression in mouse A9 Lewis lung carcinoma cells, 24 hours, flow cytometry; assay type: cell-based; conditions: 100 ng/ml, positive control
Protocol: FIG. 1A-1B. Cannabigerol stimulates MHC class I expression in the mouse A9 Lewis lung carcinoma (FIG. 1A) and the human COLO 205 colorectal carcinoma (FIG. 1B) cell lines. Cells were treated for 24 hours with 21.2 μM (A) or 25 and 50 μM (FIG. 1B) cannabigerol.
Cannabigerol, a representative cannabinoid, was tested for its ability to also stimulate MHC class I expression in mammalian cancer cell lines. The mouse Lewis lung carcinoma cell line, A9, was treated with 21 μM of cannabigerol for 24 hours prior to flow cytometric analysis of cell surface expression of MHC class I expression levels using the MHC class I antibody W6/32 (Thermo Fisher). Control conditions included the vehicle, dimethyl sulfoxide (DMSO, 1%) alone, and 100 ng/ml of trichostatin A (TSA), a histone deacetylase inhibitor and known inducer of MHC class I expression in mammalian cells. […] The positive control, TSA, stimulated expression by 2.4-fold.

[5] = system: MHC-I expression, mouse cancer cell lines; test: MHC-I expression restoration by IFN-γ in mouse cancer cell lines; assay type: cell-based; conditions: 48 hours
Protocol: (§1) FIG. 3A-3B. […] MHC-I downregulation is reversible in the majority of human and mouse cancer cell lines.
(§2) MHC-I expression may be restored in cancers, such as those with intact antigen processing machinery (APM) genes. Various human and mouse cancer cell lines were treated with dose titrations of recombinant human and mouse IFN-γ, respectively. The cells were incubated with IFN-γ for 48 hours in a humidified chamber at 37° C., stained with fluorescent haplotype-appropriate MHC-I antibody, then signal was determined by flow cytometry. Cancers represented in this experiment include brain (SK-N-MC), breast (4T1, EMT6), colorectal (COLO 205, SNU-C1, DLD-1, LS123, LS411N, LoVo, CT26, MC38), kidney (Renca), lung (NCI-H146, LLC), lymphoid (A20), and skin (A431, SK-MEL-2, B16F10). IFN-γ induced MHC-I expression in a dose-dependent manner in 6/10 (60%) human and 6/9 mouse (67%) cell lines. […] The results are found in FIGS. 3A-3B.

[6] = system: MHC-I expression, human cancer cell lines; test: MHC-I expression restoration by IFN-γ in human cancer cell lines; assay type: cell-based; conditions: 48 hours
Protocol: as §1, §2

[7] = COLO 205, 10 μM, W6/32 staining
[8] = COLO 205, 20 μM, W6/32 staining
[9] = COLO 205, 30 μM, W6/32 staining
[10] = COLO 205, 40 μM, W6/32 staining

| Compound | MFI [1, 7] | MFI [1, 8] | MFI [1, 9] | MFI [1, 10] | fold induction at 10 µM [1] | fold induction at 20 µM [1] | fold induction at 30 µM [1] | fold induction at 40 µM [1] | pEC50 ([3]; Homo sapiens, COLO 205, 48 h) | Fold Induction [3] | also measured |
| --- | --- | --- | --- | --- | --- | --- | --- | --- | --- | --- | --- |
| C=C(C)[C@@H]1CCC(C)=CC1c1c(O)cc(CCCCC)cc1O (stereo partly drawn) [Example 2, 2-[1R-3-methyl-6R-(1-methylethenyl)-2-cyclohexen-1-yl]-5-pentyl-1,3-benzenediol] | 141 | 205 | 199 | 82 | 1.17 | 1.69 | 1.64 | 0.68 | 5.00 | 2.8 Fold | MHC-I expression ([2]; 48 hr): robust induction; MHC-I expression ([2]; by 24 hours): slight increase |
| CCCCCc1cc(O)c2c(c1)OC(C)(CCC=C(C)C)C=C2 (centres unmarked) [Example 3, 2-methyl-2-(4-methyl-3-penten-1-yl)-7-pentyl-2H-1-benzopyran-5-ol] | 120 | 148 | 177 | 280 | 0.99 | 1.22 | 1.46 | 2.31 | 4.70 | 1.6 Fold |  |
| CCCCCc1cc(O)c2c(c1)OC(C)(C)c1ccc(C)cc1-2 [Example 4, 6,6,9-trimethyl-3-pentyl-6H-dibenzo[b,d]pyran-1-ol] | 120 | 160 | 253 | 253 | 0.99 | 1.32 | 2.09 | 2.09 | 4.60 | 1.8 Fold |  |
| CCCc1cc(O)c2c(c1)OC(C)(C)[C@@H]1CCC(C)=C[C@@H]21 [Example 5, 6aR,7,8,10aR-tetrahydro-6,6,9-trimethyl-3-propyl-6H-dibenzo[b,d]pyran-1-ol] | 152 | 192 | 235 | 242 | 1.26 | 1.59 | 1.94 | 2 | 4.82 | 3.0 Fold |  |
| C=C(C)[C@@H]1CCC(C)=C[C@H]1c1c(O)cc(CCC)cc1O [Example 386, 2-[(1R,6R)-3-methyl-6-(1-methylethenyl)-2-cyclohexen-1-yl]-5-propyl-1,3-benzenediol] |  |  |  |  |  |  |  |  | 4.72 | 5.5 Fold |  |
| CCCCCc1cc(OC)c2c(c1)OC(C)(C)c1ccc(C)cc1-2 [Example 387, 1-methoxy-6,6,9-trimethyl-3-pentyl-6H-dibenzo[b,d]pyran] |  |  |  |  |  |  |  |  | 4.52 | 2.3 Fold |  |
| CC(C)=CCC/C(C)=C/Cc1c(O)cc(C)cc1O [Example 388, 2-[(2E)-3,7-dimethyl-2,6-octadien-1-yl]-5-methyl-1,3-benzenediol] |  |  |  |  |  |  |  |  | 4.44 | 2.7 Fold |  |
| CC(C)=CCC/C(C)=C/Cc1c(O)cc(C)c(C(=O)O)c1O [Example 389, 3-[(2E)-3,7-dimethyl-2,6-octadien-1-yl]-2,4-dihydroxy-6-methyl-benzoic acid] |  |  |  |  |  |  |  |  |  | 2.6 Fold |  |
| CCCCCc1cc(O)c2c(c1)OC1(C)CCC3C1C2C3(C)C [Example 390, (1aS,1a^1R,3aR,8bR)-1,1,3a-trimethyl-6-pentyl-1a,1a^1,2,3,3a,8b-hexahydro-1H-4-oxabenzo[f]cyclobuta[cd]inden-8-ol] |  |  |  |  |  |  |  |  | 4.70 | 4.2 Fold |  |
| CC(/C=C/C(=O)NO)=C\[C@@H](C)C(=O)c1ccc(N(C)C)cc1 [TSA, trichostatin A, reference compound] |  |  |  |  |  |  |  |  |  |  | increase in MHC class I expression [4]: 2.4 fold |
| C=C(C)[C@@H]1CCC(C)=C[C@H]1c1c(O)cc(CCCCC)cc1O [cannabidiol (CBD)] |  |  |  |  |  |  |  |  |  |  | pEC50 ([3]; read-out: EC50 of MHC-I induction, COLO 205, 48 hours): 5.00 |
| Interferon-γ: a natural cytokine known to stimulate MHC class I expression in many mammalian cells |  |  |  |  |  |  |  |  |  |  | cell lines with dose-dependent induction of MHC-I expression [5]: 6/9; cell lines with dose-dependent induction of MHC-I expression [6]: 6/10; MFI ([1]; COLO 205, 0.004 ng/mL): 119; MFI ([1]; COLO 205, 0.012 ng/mL): 193; MFI ([1]; COLO 205, 0.040 ng/mL): 250; MFI ([1]; COLO 205, 0.110 ng/mL): 321; MFI ([1]; COLO 205, 1.000 ng/mL): 483; MFI ([1]; COLO 205, 3.000 ng/mL): 482; increase in MHC class I expression (maximum) ([1]; COLO 205, interferon-γ reference): ≤ 4 fold |
